Laboratory results published in paper PMC5729429, “Gimatecan exerts potent antitumor activity against gastric cancer in vitro and in vivo via AKT and MAPK signaling pathways” (Journal of Translational Medicine, 2017).

Assays:
[1] = system: HGC27 cells; experiment: Annexin V-PE/7-AAD apoptosis assay (flow cytometry), HGC27; format: cell-based, human; settings: 1000 nM, 24 h
Procedure: Apoptosis was measured by staining with phycoerythrin (PE)-annexin V and 7-amino-actinomycin (7-AAD) (BD Biosciences, Erembodegem, Belgium) for 15 min at room temperature in the dark, followed by flow cytometry (BD Biosciences) within 1 h. Apoptosis was analyzed with FlowJo 7.6 software (FlowJo, LLC, Ashland, Oregon).
Supplementary file 12967_2017_1360_MOESM2_ESM.pdf: Additional file 2: Figure S2. Gimatecan induces apoptosis in HGC27 cell line. (A) Compared with irinotecan, gimatecan induced higher cell apoptosis in HGC27 cell. Cells were treated with gimatecan (0–1 µM) and irinotecan (0–1 µM) for 24 h and stained with Annexin V-PE/7-AAD. Sums of percentages of early apoptosis (Q3) and late apoptosis (Q2) were calculated as the total apoptosis ratios. (B) Pro- and anti-apoptotic proteins including Bcl-2, Bak, PARP and cleaved PARP were assessed by western-blotting in HGC27 cell. Western-blotting bands were quantified and normalized by ImageJ. All data are means ± SD of three independent experiments. *Compared with controls, p < 0.05; ns, p > 0.05.

[2] = system: AKT and MAPK signaling pathways; experiment: Western blot of AKT and MAPK pathway molecules in GC cells; format: cell-based, human; settings: 48 h
Procedure: SNU-1, HGC27 and NCI-N87 cells were starved in serum-free medium overnight, exposed to inhibitors for 48 h and harvested at 70–80% confluence. Total protein was extracted from cells or xenograft tissues on ice, using RIPA Lysis Buffer (Beyotime, Shanghai, China) supplemented with complete protease inhibitor and phosphatase inhibitor cocktail (Roche, Basel, Switzerland). Protein concentration was measured using a BCA Protein Assay Kit (Beyotime, Shanghai, China), and 50 μg protein from each sample was separated by 10% SDS-PAGE. After transfer to nitrocellulose membranes (GE Healthcare, Piscataway, NJ), samples were incubated with corresponding primary antibodies diluted in 5% BSA at 4 °C overnight and then with secondary antibodies at room temperature for 1 h. Proteins were visualized with a chemiluminescent detection system (GE Healthcare), using ECL plus Western blot reagents (GE Healthcare). Western-blotting bands were quantified and normalized by ImageJ software.
Cells were starved in serum-free medium overnight, exposed to gimatecan or irinotecan for 48 h and harvested at 70–80% confluence. Total protein of SNU-1 and NCI-N87 was extracted and the expression of TopI, pAKT, pMEK, pERK, p-p38 MAPK and pJNK2 were assessed by western-blotting followed by quantification and normalization by ImageJ. All data are mean ± SD of three independent experiments. Compared with controls, *p < 0.05

[3] = system: normal immortalized gastric epithelial cell line; experiment: Growth inhibition of normal gastric epithelial cells; format: cell-based; settings: data not shown

Compound: CC[C@@]1(O)C(=O)OCc2c1cc1n(c2=O)Cc2c-1nc1ccccc1c2/C=N/OC(C)(C)C [Gimatecan, 7-t-butoxyiminomethylcamptothecin]
- proportion of apoptotic cells [1]: 14.27 ± 1.69%
- effect on AKT and MAPK pathway molecules ([2]; NCI-N87 cells): only inhibited expression of pAKT and pERK
- effect on AKT and MAPK pathway molecules ([2]; SNU-1 and HGC27 cells, pAKT, pMEK, pERK inhibited, p-p38 and pJNK2 upregulated): significantly inhibited the AKT pathway and activated the JNK2 and p38 MAPK pathway
- growth inhibition in normal cells [3]: weak growth inhibition
